ChEMBL document CHEMBL2331351, “5-Oxo-ETE receptor antagonists” (J Med Chem, 2013)
pIC50: −log10 of the molar value. The source made the active and inactive calls. No cut-off for these calls is given here.

How the values were obtained:
Assay type in all cases: functional
Oxoeicosanoid receptor 1 [1] = target: T1, Oxoeicosanoid receptor 1 (Homo sapiens, UniProt Q8TDS5); assay: Agonist activity at OXE receptor in human neutrophils assessed as 5-oxo-ETE-induced Ca2+ mobilization incubated for 2 mins prior to 5-oxo-ETE addition measured after 1 min by spectrofluorimetric analysis
Oxoeicosanoid receptor 1 [2] = target: T1, Oxoeicosanoid receptor 1; assay: Antagonist activity at OXE receptor in human neutrophils assessed as 5-oxo-ETE-induced Ca2+ mobilization incubated for 2 mins prior to 5-oxo-ETE addition measured at 30 uM after 1 min by spectrofluorimetric analysis
Oxoeicosanoid receptor 1 [3] = target: T1, Oxoeicosanoid receptor 1; assay: Antagonist activity at OXE receptor in human neutrophils assessed as 5-oxo-ETE-induced Ca2+ mobilization incubated for 2 mins prior to 5-oxo-ETE addition measured after 1 min by spectrofluorimetric analysis
Oxoeicosanoid receptor 1 [4] = target: T1, Oxoeicosanoid receptor 1; assay: Antagonist activity at OXE receptor in human neutrophils assessed as induction of Ca2+ mobilization at 30 uM after 2 mins by spectrofluorimetric analysis
Oxoeicosanoid receptor 1 [5] = target: T1, Oxoeicosanoid receptor 1; assay: Antagonist activity at OXE receptor in human neutrophils assessed as 5-oxo-ETE-induced Ca2+ mobilization incubated for 2 mins prior to 5-oxo-ETE addition measured at 1 uM after 1 min by spectrofluorimetric analysis
Oxoeicosanoid receptor 1 [6] = target: T1, Oxoeicosanoid receptor 1; assay: Antagonist activity at OXE receptor in human neutrophils assessed as LTB4-induced Ca2+ mobilization incubated for 2 mins prior to 5-oxo-ETE addition measured after 1 min by spectrofluorimetric analysis

T1 sequence (Q8TDS5 whole entry): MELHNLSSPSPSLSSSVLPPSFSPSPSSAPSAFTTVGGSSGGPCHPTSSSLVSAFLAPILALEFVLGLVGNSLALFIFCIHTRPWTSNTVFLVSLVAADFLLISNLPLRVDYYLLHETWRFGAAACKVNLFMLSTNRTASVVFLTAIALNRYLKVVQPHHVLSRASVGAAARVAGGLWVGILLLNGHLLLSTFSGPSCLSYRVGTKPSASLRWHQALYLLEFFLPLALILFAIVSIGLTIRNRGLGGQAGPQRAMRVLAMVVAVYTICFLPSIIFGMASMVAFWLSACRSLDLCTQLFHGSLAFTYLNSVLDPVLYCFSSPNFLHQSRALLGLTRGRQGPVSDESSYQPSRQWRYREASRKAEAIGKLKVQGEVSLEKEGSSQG

Activity (Oxoeicosanoid receptor 1 [1])	pIC50 (Oxoeicosanoid receptor 1 [3])	SMILES	also measured
inactive	–	O=C(O)CCCC(=O)/C=C/c1cccc2ccccc12	–
inactive	< 4.52	O=C(O)CCCC(=O)n1ccc2ccccc21	Activity (Oxoeicosanoid receptor 1 [2]): inactive; Activity (Oxoeicosanoid receptor 1 [4]): inactive
–	5.81	CCCCCCc1cc2ccccc2n1C(=O)CCCC(=O)O	Activity (Oxoeicosanoid receptor 1 [5]): Active; Activity (Oxoeicosanoid receptor 1 [6]): inactive
–	4.93	CCCCCCc1cccc2ccn(C(=O)CCCC(=O)O)c12	–
inactive	–	O=C(O)CCCc1cc2ccccc2o1	–
inactive	–	O=C(O)CCCC(=O)/C=C/c1ccccc1	–
–	4.74	CCCCCCc1ccc2ccn(C(=O)CCCC(=O)O)c2c1	–
–	4.75	CCCCCCc1ccc2c(ccn2C(=O)CCCC(=O)O)c1	–
–	4.68	CCCCCCc1cn(C(=O)CCCC(=O)O)c2ccccc12	–
